Laboratory results published in patent US7166581B1, “Treatment of chemotherapeutic agent and antiviral agent toxicity with acylated pyrimidine nucleosides” (Wellstat Therapeutics Corporation, priority 1987, dated 2007).

Assays:
[1] = test system: CD8F1 spontaneous mammary adenocarcinoma; assay: TAU/uridine rescue with 5-FU alone in tumor-bearing mice (Example 5); format: in vivo
Method: Sixty CD8F1 (BALB/C×[…]) female mice with first generation transplants of CD8F1 spontaneous mammary adenocarcinoma were treated with a weekly chemotherapy regimen which included a single dose of 5-FU (150 mg/kg) followed by various rescue strategies. The average tumor size was 157 mg at the start of the chemotherapy. The weekly chemotherapy course was completed three times.
In order to evaluate the various rescue therapies, the animals were divided into six groups of ten animals each as follows: […]

[2] = test system: hematopoietic system (AZT toxicity); assay: Oral DAdC vs hematopoietic toxicity of i.p. AZT in DBA mice (Example 10); format: in vivo, female DBA mice
Method: AZT (100 mg/kg i.p.) was given three times daily at 9 a.m., 4 p.m., and at 10 p.m. to twenty-eight female DBA mice weighing approximately 20 grams each. Three times each day, at 9 a.m., 4 p.m., and 10 p.m., animals were treated with either water (control) or DAdC (411 mg/kg/treatment) by oral intubation. Treatment volume was 0.2 ml. One additional group of fourteen mice was not given AZT or any treatment (basal).
During the first few days of treatment a total of eight mice died from accidents occurring during oral administration of the water and DAdC. Therefore, the number of animals in the control group and the DAdC group were reduced on the days of sacrifice as follows: On day 6 there were four mice in the control group and five in the DAdC group; on day 13 there were seven in the control group and three in the DAdC group. The number of basal animals was seven at both time points.
(§1) On days six and thirteen blood (0.2–0.3 ml) was collected from mice in each group by retro-orbital bleeding into EDTA for subsequent differential blood cell counting, including reticulocytes. The animals were then sacrificed by cervical dislocation; their right femurs removed and the contents expelled for cell counting; and their spleens removed and weighed.

[3] = test system: hematopoietic system (AZT toxicity); assay: DAdC or THU vs hematopoietic damage by i.p. AZT in Balb/C mice (Example 11); format: in vivo, female Balb/C mice; settings: for Total neutrophil counts: day thirteen, AZT + DAdC 300 mg/kg p.o. or THU […] i.p. three times daily
Method: AZT (100 mg/kg i.p.) was given three times daily at 9 a.m., 4 p.m., and 10 p.m. to twenty-one female Balb/C mice weighing approximately 20 grams each. […] Treatment volume was 0.2 ml. One group of seven mice was not given AZT or any treatment (basal).
as §1, with “day” for “days six and”, “bleeding-into” for “bleeding into”

[4] = test system: hematopoietic system (Ara-C toxicity); assay: DAdC or PdC vs hematopoietic toxicity of arabinosyl cytosine (Example 7); format: in vivo, Balb/C female mice; settings: Ara-C 100 mg/kg i.p. daily for five days; DAdC 411 mg/kg p.o. or PdC 200 mg/kg i.p. twice daily
Method: Twenty-one Balb/C female mice weighing approximately 20 grams each received a daily intraperitoneal injection of Ara-C (100 mg/kg) for five days. These mice were divided into three treatment groups: oral administration of water (controls); oral administration of DAdC (411 mg/kg/treatment); and intraperitoneal administration of PdC (200 mg/kg/treatment in 0.2% Tween 80). Mice were treated with either water, DAdC, or PdC twice daily, at 9 a.m. and 6 p.m. Treatment volume in each case was 0.2 ml. An additional seven mice received no Ara-C and no treatment at all (basals).
On days seven and eleven following 5-FU administration, blood (0.2–0.3 ml) was collected from the seven mice in each group by retro-orbital bleeding into EDTA for subsequent differential blood cell counting. Mice were sacrificed by cervical dislocation, and their spleens removed and weighed.

[5] = test system: hematopoietic system (5-FU toxicity); assay: Acyl derivatives of uridine i.p. vs bone marrow toxicity of 5-FU (Example 3); format: in vivo, female Balb/C mice; settings: for Spleen weights: day eleven after 5-FU, in mg; for HCT % / Lym / Neut / RBC / WBC: eleven days after 5-FU; for Spleen weight: day seven after 5-FU 150 mg/kg i.p., i.p. doses equimolar to uridine 300 mg/kg/treatment
Method: Ninety-eight female Balb/C mice weighing approximately 20 grams each were given a one-time 150 mg/kg injection (i.p.) of 5-FU at 1 p.m. on the initial day of the study. […] All of these doses are equimolar, and were administered in a volume of 0.4 ml by i.p. injection. The groups were treated at 3:30, 6:00, and 8:30 p.m. on the initial day with their respective agents. […] On days seven and eleven following 5-FU administration, blood (0.2–0.3 ml) was collected from seven mice in each group by retro-orbital bleeding into EDTA for subsequent differential blood cell counting. Mice were sacrificed by cervical dislocation; their right femurs removed and the contents expelled for cell counting; and their spleens removed and weighed.

[6] = test system: hematopoietic system (5-FU toxicity); assay: Octanoyluridine vs hematological toxicity of 5-FU (Example 3A); format: in vivo, Balb/C female mice; settings: seven days after 5-FU 75 mg/kg i.p.; Oct-U 100 mg/kg/treatment i.p.
Method: Fourteen Balb/C female mice weighing approximately 20 grams each were given a one-time 75 mg/kg i.p. injection of 5-FU at 11:00 a.m. on the initial day of the study. Half of these animals were subsequently treated with Oct-U (100 mg/kg/treatment, i.p.), while the other half (controls) were injected with physiological saline. Administration of Oct-U and saline occurred at 2:30, 4:30, and 7:00 p.m. on the initial day, and at 9:30 a.m., 12:00 noon, 2:30, and 5:00 p.m the following day. An additional group of seven mice (basals) received no 5-FU and no treatments.

[7] = Toxicity of oral tegafur with TAU or uracil: body weight and blood cell counts (Example 13); format: in vivo, mice; settings: alone or with uracil or TAU 4:1 molar
Method: Triacetyluridine (TAU), like other acyl derivatives of uridine and cytidine of the invention, is converted to uridine and uracil during and after absorption into the bloodstream; when present at the same time as 5-FU, both uridine and uracil are capable of potentiating 5-FU cytotoxicity. Therefore, the cytotoxicity of oral tegafur+uracil versus tegafur+TAU was assessed. Blood cell counts were utilized as an index of cytotoxicity of 5-FU in the circulation (and by extension, of antitumor potency). Body weight loss was used as an index of gastrointestinal toxicity.
Three groups of mice received tegafur by oral intubation in a dose of 400 mg/kg per mouse. The initial body weight of mice in each group was 19.0±0.6 grams. One of these groups also received uracil in a molar ratio of 4:1 to the tegafur dose, and another group received TAU, also in a 4:1 molar ratio to tegafur. Body weights were monitored. Six days after tegafur administration, blood samples were taken for differential cell counts.
All drugs were administered orally in a single dose. Blood samples were taken for cell counts 6 days after drug administration; body weights were also recorded at this time.

[8] = AZT for six days + oral DAdC 411 mg/kg/treatment
[9] = AZT for thirteen days + oral DAdC 411 mg/kg/treatment
[10] = AZT for thirteen days + DAdC 300 mg/kg/treatment p.o.
[11] = 6 days after single oral tegafur 400 mg/kg
[12] = day seven after 5-FU, equimolar i.p. doses

O=c1[nH]cc(F)c(=O)[nH]1 [5-FU, 5-fluorouracil]
Mortality ([1]; 5-FU 150 mg/kg i.p. weekly x3 + vehicle (oil-water emulsion)): 10/10
Mortality ([1]; 5-FU alone 150 mg/kg i.p. weekly x3, no rescue): 9/10

CC(=O)OC[C@H]1O[C@@H](n2ccc(N)nc2=O)C[C@@H]1OC(C)=O [DAdC, diacetyldeoxycytidine]
HCT [2, 8]: 40.84 ± 1.35
HGB [2, 8]: 13.96 ± .40
RBC [2, 8]: 9.49 ± .32
Reticulocytes [2, 8]: .205 ± .075
HCT [2, 9]: 41.53 ± 1.17
HGB [2, 9]: 13.97
RBC [2, 9]: 9.16 ± .32
Reticulocytes [2, 9]: .814 ± .069
reduction in bone marrow cellularity vs basals ([2]; day six, AZT 100 mg/kg i.p. three times daily + oral DAdC 411 mg/kg/treatment): 2.5%
Platelet counts ([2]; day thirteen, AZT + oral DAdC 411 mg/kg/treatment): 769±32
RBC ([3]; AZT 100 mg/kg i.p. three times daily for thirteen days + DAdC 300 mg/kg/treatment p.o.): 8.26 ± .13
HCT [3, 10]: 39.51 ± 0.61
HGB [3, 10]: 14.97 ± .15
Retic. [3, 10]: .059 ± .006
Total neutrophil counts [3]: 1.39±0.14
Neut [4]: 0.42 ± .05 K/μl
PLT [4]: 728 ± 64 K/μl
Spleen [4]: 87.8 ± 3.5 milligrams
WBC [4]: 5.00 ± .42 K/μl

CCCCCCCC(=O)OCC1OC(n2ccc(=O)[nH]c2=O)C(O)C1O (stereo not shown) [Oct-U]
overall effect at the dose used ([5]; after 5-FU, OU 455 mg/kg/treatment i.p.): somewhat detrimental
Lym [6]: 4.62 ± .29 thousands per microliter
Marrow [6]: 7.73 ± .68 thousands per microliter
Neut [6]: 1.19 ± .22 thousands per microliter
PLT [6]: 1243 ± 59 K/μl
RBC [6]: 8.13 ± .14 M/μl
Spleen weight [6]: 87.2 ± 3.7 mg
WBC [6]: 5.96 ± .47 thousands per microliter

O=C1NC(O)CCN1[C@@H]1O[C@H](CO)[C@@H](O)[C@H]1O (stereo partly shown) [THU, Tetrahydrouridine, reference compound]
Total neutrophil counts [3]: 1.16±0.15

O=c1[nH]c(=O)n(C2CCCO2)cc1F (stereo not shown) [Tegafur]
Body weight [7, 11]: 18.2 ± 0.7 grams
Neutrophils [7, 11]: 0.40 ± 0.085 K/μl
Platelets [7, 11]: 956 ± 30 K/μl
loss of body weight compared to untreated (basal) animals ([7]; oral tegafur 400 mg/kg): 7%

benzoyluridine [BU]
Spleen weights ([5]; equimolar i.p. doses): 126.9±12.3
Platelet counts [5, 12]: 829.6 ×10^3 per microliter
HCT % ([5]; equimolar i.p. doses): 36.87 ± 0.6 %
Lym ([5]; equimolar i.p. doses): 5.1 ± .4 K/μl
Neut ([5]; equimolar i.p. doses): 1.04 K/μl
RBC ([5]; equimolar i.p. doses): 7.62 ± .1 M/μl
WBC ([5]; equimolar i.p. doses): 6.20 ± .49 K/μl

ethoxycarbonyluridine [ECU]
Spleen weight [5]: 75.7 ± 5.0 mg
Lymphocyte counts [5, 12]: 7.19±0.32 ×10^3 per microliter
White blood cell counts [5, 12]: 7.26±0.31 ×10^3 per microliter
HCT % ([5]; equimolar i.p. doses): 37.54 ± 1.0 %
Lym ([5]; equimolar i.p. doses): 4.8 ± .5 K/μl
Neut ([5]; equimolar i.p. doses): .66 ± K/μl
RBC ([5]; equimolar i.p. doses): 7.65 ± .2 M/μl
WBC ([5]; equimolar i.p. doses): 5.51 ± .64 K/μl

palmitoyldeoxycytidine [PdC]
Neut [4]: 1.22 ± .27 K/μl
PLT [4]: 327 ± 30 K/μl
Spleen [4]: 126.0 ± 5.3 milligrams
WBC [4]: 5.20 ± .35 K/μl

valeryluridine [VU]
Spleen weights ([5]; equimolar i.p. doses): 139.4±8.0
Spleen weight [5]: 69.1 ± 1.7 mg
Lymphocyte counts [5, 12]: 6.42±0.49 ×10^3 per microliter
Platelet counts [5, 12]: 825.7±26.7 ×10^3 per microliter
Total neutrophil counts [5, 12]: 0.141±0.027 ×10^3 per microliter
White blood cell counts [5, 12]: 6.57±0.49 ×10^3 per microliter
HCT % ([5]; equimolar i.p. doses): 38.31 ± 0.8 %
Lym ([5]; equimolar i.p. doses): 5.2 ± .4 K/μl
Neut ([5]; equimolar i.p. doses): .97 ± K/μl
RBC ([5]; equimolar i.p. doses): 7.83 ± .1 M/μl
WBC ([5]; equimolar i.p. doses): 6.31 ± .42 K/μl
